Reference: patent publication US20150105252A1, “SUBSTITUTED PYRAZOLES AS HERBICIDES” (E I DU PONT DE NEMOURS AND COMPANY, priority 2013, published 2015)

Columns and labels:
kochia [1] = test: Test D preemergence; assay type: in vivo, Kochia scoparia; settings: scale 0 to 100
In short: (§1)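 Visual injury scored 0–100 (0 none, 100 complete control) against controls 14–21 days after treatment in a controlled growth environment. Chemicals were formulated in a non-phytotoxic solvent mixture containing surfactant, applied to silt loam soil preemergence or to 1- to 4-leaf plants postemergence.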

bluegrass = test: Test D preemergence; assay type: in vivo, Poa annua; settings: scale 0 to 100
In short: as §1

kochia [2] = test: Test D postemergence; assay type: in vivo, Kochia scoparia; settings: scale 0 to 100
In short: as §1

foxtail, green = test: Test D postemergence; assay type: in vivo, Setaria viridis; settings: scale 0 to 100
In short: as §1

Surinam grass = test: Test F preemergence; assay type: in vivo, Brachiaria decumbens
In short: (§2)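 Formulated in surfactant-containing non-phytotoxic solvent; pre: applied to seeded silt loam; post: applied to plants 2–18 cm (1–4 leaves); greenhouse 14–21 d; visual 0–100 rating vs controls.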

radish, wild = test: Test D postemergence; assay type: in vivo, Raphanus raphanistrum; settings: scale 0 to 100
In short: as §1

kochia [3] = test: Test F preemergence; assay type: in vivo, Kochia scoparia
In short: as §2

blackgrass = test: Test D postemergence; assay type: in vivo, Alopecurus myosuroides; settings: scale 0 to 100
In short: as §1

wheat, spring = test: Test D preemergence; assay type: in vivo, Triticum aestivum; settings: scale 0 to 100
In short: as §1

wheat, winter = test: Test D preemergence; assay type: in vivo, Triticum aestivum; settings: scale 0 to 100
In short: as §1

hairy beggarticks = test: Test F preemergence; assay type: in vivo, Bidens pilosa
In short: as §2

windgrass = test: Test D postemergence; assay type: in vivo, Apera spica-venti; settings: scale 0 to 100
In short: as §1

goosegrass = test: Test F preemergence; assay type: in vivo, Eleusine indica
In short: as §2

speedwell = test: Test D preemergence; assay type: in vivo, Veronica persica; settings: scale 0 to 100
In short: as §1

[4] = Preemergence, 31 g ai/ha, scale 0 to 100
[5] = Preemergence, 62 g ai/ha, scale 0 to 100
[6] = Preemergence, 125 g ai/ha, scale 0 to 100
[7] = preemergence, 8 g ai/ha, scale 0 to 100, 100 is complete control
[8] = preemergence, 16 g ai/ha, scale 0 to 100, 100 is complete control

SMILES: CCCc1cc(C(=O)NCC(F)(F)F)nn1Cc1ccnc(C(F)(F)F)c1 [Compound 105]
- Plant response rating, Kochia (kochia [1]; 31 g ai/ha): 95
- Plant response rating, Kochia (kochia [1]; 62 g ai/ha): 100
- Plant response rating, Kochia (kochia [1]; 125 g ai/ha): 100
- Plant response rating, Kochia (kochia [1]; 250 g ai/ha): 100
- Plant response rating, Bluegrass (bluegrass; 31 g ai/ha): 55
- Plant response rating, Bluegrass (bluegrass; 62 g ai/ha): 80
- Plant response rating, Bluegrass (bluegrass; 125 g ai/ha): 100
- Plant response rating, Bluegrass (bluegrass; 250 g ai/ha): 100
- Kochia plant response rating (kochia [2]; Postemergence, 31 g ai/ha): 75
- Kochia plant response rating (kochia [2]; Postemergence, 125 g ai/ha): 80
- Kochia plant response rating (kochia [2]; Postemergence, 250 g ai/ha): 80
- Kochia plant response rating (kochia [2]; postemergence, 62 g ai/ha): 75
- Foxtail, Green plant response rating (foxtail, green; Postemergence, 31 g ai/ha): 10
- Foxtail, Green plant response rating (foxtail, green; Postemergence, 125 g ai/ha): 70
- Foxtail, Green plant response rating (foxtail, green; Postemergence, 250 g ai/ha): 80
- Foxtail, Green plant response rating (foxtail, green; postemergence, 62 g ai/ha): 65
- Plant response rating, Surinam Grass (Surinam grass; [4]): 10
- Plant response rating, Surinam Grass (Surinam grass; [5]): 35
- Plant response rating, Surinam Grass (Surinam grass; [6]): 40
- Plant response rating, Surinam Grass (Surinam grass; [7]): 0
- Plant response rating, Surinam Grass (Surinam grass; [8]): 10
- Radish, Wild plant response rating (radish, wild; Postemergence, 31 g ai/ha): 35
- Radish, Wild plant response rating (radish, wild; Postemergence, 125 g ai/ha): 70
- Radish, Wild plant response rating (radish, wild; Postemergence, 250 g ai/ha): 80
- Radish, Wild plant response rating (radish, wild; postemergence, 62 g ai/ha): 55
- Plant response rating, Kochia (kochia [3]; [4]): 100
- Plant response rating, Kochia (kochia [3]; [5]): 100
- Plant response rating, Kochia (kochia [3]; [6]): 100
- Plant response rating, Kochia (kochia [3]; [7]): 0
- Plant response rating, Kochia (kochia [3]; [8]): 80
- Blackgrass plant response rating (blackgrass; Postemergence, 31 g ai/ha): 10
- Blackgrass plant response rating (blackgrass; Postemergence, 125 g ai/ha): 65
- Blackgrass plant response rating (blackgrass; Postemergence, 250 g ai/ha): 70
- Blackgrass plant response rating (blackgrass; postemergence, 62 g ai/ha): 15
- Plant response rating, Wheat, Spring (wheat, spring; 31 g ai/ha): 10
- Plant response rating, Wheat, Spring (wheat, spring; 62 g ai/ha): 40
- Plant response rating, Wheat, Spring (wheat, spring; 125 g ai/ha): 75
- Plant response rating, Wheat, Spring (wheat, spring; 250 g ai/ha): 100
- Plant response rating, Wheat, Winter (wheat, winter; 31 g ai/ha): 15
- Plant response rating, Wheat, Winter (wheat, winter; 62 g ai/ha): 35
- Plant response rating, Wheat, Winter (wheat, winter; 125 g ai/ha): 75
- Plant response rating, Wheat, Winter (wheat, winter; 250 g ai/ha): 90
- Plant response rating, Hairy Beggarticks (hairy beggarticks; [4]): 0
- Plant response rating, Hairy Beggarticks (hairy beggarticks; [5]): 20
- Plant response rating, Hairy Beggarticks (hairy beggarticks; [6]): 40
- Plant response rating, Hairy Beggarticks (hairy beggarticks; [7]): 0
- Plant response rating, Hairy Beggarticks (hairy beggarticks; [8]): 0
- Windgrass plant response rating (windgrass; Postemergence, 31 g ai/ha): 15
- Windgrass plant response rating (windgrass; Postemergence, 125 g ai/ha): 40
- Windgrass plant response rating (windgrass; Postemergence, 250 g ai/ha): 70
- Windgrass plant response rating (windgrass; postemergence, 62 g ai/ha): 25
- Plant response rating, Goosegrass (goosegrass; [4]): 40
- Plant response rating, Goosegrass (goosegrass; [5]): 90
- Plant response rating, Goosegrass (goosegrass; [6]): 98
- Plant response rating, Goosegrass (goosegrass; [7]): 30
- Plant response rating, Goosegrass (goosegrass; [8]): 35
- Plant response rating, Speedwell (speedwell; 31 g ai/ha): 100
- Plant response rating, Speedwell (speedwell; 62 g ai/ha): 100
- Plant response rating, Speedwell (speedwell; 125 g ai/ha): 100
- Plant response rating, Speedwell (speedwell; 250 g ai/ha): 100

SMILES: CCOc1cc(C(=O)NC(C)C)nn1Cc1ccnc(C(F)(F)F)c1 [Compound 188]
- Plant response rating, Kochia (kochia [1]; 62 g ai/ha): 100
- Plant response rating, Kochia (kochia [1]; 125 g ai/ha): 100
- Plant response rating, Kochia (kochia [1]; 250 g ai/ha): 100
- Plant response rating, Bluegrass (bluegrass; 31 g ai/ha): 55
- Plant response rating, Bluegrass (bluegrass; 62 g ai/ha): 70
- Plant response rating, Bluegrass (bluegrass; 125 g ai/ha): 100
- Plant response rating, Bluegrass (bluegrass; 250 g ai/ha): 100
- Kochia plant response rating (kochia [2]; Postemergence, 31 g ai/ha): 75
- Kochia plant response rating (kochia [2]; Postemergence, 125 g ai/ha): 80
- Kochia plant response rating (kochia [2]; Postemergence, 250 g ai/ha): 85
- Kochia plant response rating (kochia [2]; postemergence, 62 g ai/ha): 75
- Foxtail, Green plant response rating (foxtail, green; Postemergence, 31 g ai/ha): 25
- Foxtail, Green plant response rating (foxtail, green; Postemergence, 125 g ai/ha): 25
- Foxtail, Green plant response rating (foxtail, green; Postemergence, 250 g ai/ha): 55
- Foxtail, Green plant response rating (foxtail, green; postemergence, 62 g ai/ha): 25
- Plant response rating, Surinam Grass (Surinam grass; [5]): 100
- Plant response rating, Surinam Grass (Surinam grass; [6]): 100
- Plant response rating, Surinam Grass (Surinam grass; [7]): 20
- Radish, Wild plant response rating (radish, wild; Postemergence, 31 g ai/ha): 70
- Radish, Wild plant response rating (radish, wild; Postemergence, 125 g ai/ha): 70
- Radish, Wild plant response rating (radish, wild; Postemergence, 250 g ai/ha): 90
- Radish, Wild plant response rating (radish, wild; postemergence, 62 g ai/ha): 70
- Plant response rating, Kochia (kochia [3]; [5]): 98
- Plant response rating, Kochia (kochia [3]; [6]): 100
- Plant response rating, Kochia (kochia [3]; [7]): 0
- Blackgrass plant response rating (blackgrass; Postemergence, 31 g ai/ha): 15
- Blackgrass plant response rating (blackgrass; Postemergence, 125 g ai/ha): 35
- Blackgrass plant response rating (blackgrass; Postemergence, 250 g ai/ha): 45
- Blackgrass plant response rating (blackgrass; postemergence, 62 g ai/ha): 15
- Plant response rating, Wheat, Spring (wheat, spring; 62 g ai/ha): 70
- Plant response rating, Wheat, Spring (wheat, spring; 125 g ai/ha): 100
- Plant response rating, Wheat, Spring (wheat, spring; 250 g ai/ha): 100
- Plant response rating, Wheat, Winter (wheat, winter; 62 g ai/ha): 65
- Plant response rating, Wheat, Winter (wheat, winter; 125 g ai/ha): 95
- Plant response rating, Wheat, Winter (wheat, winter; 250 g ai/ha): 100
- Plant response rating, Hairy Beggarticks (hairy beggarticks; [5]): 0
- Plant response rating, Hairy Beggarticks (hairy beggarticks; [6]): 0
- Plant response rating, Hairy Beggarticks (hairy beggarticks; [7]): 0
- Windgrass plant response rating (windgrass; Postemergence, 31 g ai/ha): 20
- Windgrass plant response rating (windgrass; Postemergence, 125 g ai/ha): 35
- Windgrass plant response rating (windgrass; Postemergence, 250 g ai/ha): 45
- Windgrass plant response rating (windgrass; postemergence, 62 g ai/ha): 20
- Plant response rating, Goosegrass (goosegrass; [5]): 98
- Plant response rating, Goosegrass (goosegrass; [6]): 100
- Plant response rating, Goosegrass (goosegrass; [7]): 5
- Plant response rating, Speedwell (speedwell; 62 g ai/ha): 100
- Plant response rating, Speedwell (speedwell; 125 g ai/ha): 100
- Plant response rating, Speedwell (speedwell; 250 g ai/ha): 100
